According to patent US12036292B2, “Heterobiaryl compounds and imaging agents for imaging huntingtin protein” (CHDI Foundation, Inc., priority 2020, dated 2024):

Each compound was assayed against T1, MBP-HTT(1-89)Q46-His(6×) (“Exon1-Q46”) protein aggregates (Homo sapiens, UniProt P42858, INS38QQQQQQQQQQQQQQQQQQQQQQQQQ) (assay: Exon1-Q46 Radioligand Binding Assay). Conditions: displacement of 0.3 nM ligand [3H3-methyl]-5-((5-methoxypyridin-2-yl)methoxy)-2-(pyrazin-2-yl)benzo[d]oxazole from 1 μM aggregated Exon1-Q46 protein; 60 minutes at 37° C.; read-out: Classified Potency.
T1 construct: MBP-HTT(1-89)Q46-His(6×); His(6×) (C); made in house
Procedure: Exon1-Q46 Radioligand Binding Assay
For radioligand binding assays (RBA) MBP-HTT(1-89)Q46-His(6×) (“Exon1-Q46”) protein was generated based on a previous publication (Scherzinger et al. Cell, Vol. 90, 549-558, Aug. 8, 1997). For experiments, 30 pM MBP-Exon1-Q46 was incubated with 150 μg/mL thrombin in assay buffer (150 mM NaCl, 50 mM Tris pH 8.0) and 2 mM CaCl2 for 16 hours at 37° C. Aggregated Exon1-Q46 was pelleted by centrifugation for 5 minutes at 13,000 rpm in a bench top centrifuge and re-dissolved in the same volume of assay buffer. Test compounds were prepared by titration in DMSO at 11 concentrations from 63 μM to 2 nM. For the RBA, Q46 protein aggregates and test compounds were pre-incubated in assay buffer for 20 minutes at room temperature, in 100 μL/well in a 96-well plate (pp, round bottom). Then, ligand was added in 50 μL/well and incubated for 60 minutes at 37° C. Final assay concentrations were 1 μM to 30 pM test compound, 1 μM Exon1-Q46 protein (equivalent monomer concentration) and 0.3 nM ligand [^3H3-methyl]-5-((5-methoxypyridin-2-yl)methoxy)-2-(pyrazin-2-yl)benzo[d]oxazole. Samples were transferred onto GF/B filter plates and washed 2× with 200 μL PBS using a Filtermate Harvester. After drying filter plates for 1 hour at 55° C., the back of the plates were sealed with foil and 30 μL/well scintillation fluid (Packard MicroScint 40) added, incubated for 15 minutes in the dark and counted in a MicroBeta reader. For analysis, replicate data from independent assay plates were normalized towards 0% and 100% inhibition using control wells of vehicle (0% inhibition) and 1 μM unlabeled [^3H3-methyl]-5-((5-methoxypyridin-2-yl)methoxy)-2-(pyrazin-2-yl)benzo[d]oxazole (100% inhibition). IC50 values were determined with a sigmoidal inhibition model with four variables (top, bottom, slope, IC50) in a global fit using the normalized replicate data.
The results for various example compounds were as provided in the table below (+++<100 nM; ++100-500; +500-10000; ND: not determined): […]

T1 sequence (P42858 with tags, fused parts or gaps with the stated changes limits assumed): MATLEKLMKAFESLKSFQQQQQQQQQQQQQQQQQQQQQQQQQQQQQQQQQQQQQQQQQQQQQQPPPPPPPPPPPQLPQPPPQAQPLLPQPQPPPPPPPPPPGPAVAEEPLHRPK

IC50, < 100 nM:
COc1ncc(NC(=O)c2cc(-c3cc(F)cc(Cl)c3)ncn2)cn1 [Example 28]
COc1ccc(-c2cc(C(=O)Nc3ccc(=O)n(C)n3)ncn2)cc1Cl [Example 8, 6-(3-Chloro-4-methoxyphenyl)-N-(1-methyl-6-oxo-1,6-dihydropyridazin-3-yl)pyrimidine-4-carboxamide]
Cn1ncc(NC(=O)c2cc(-c3cc(F)cc(Cl)c3)ncn2)cc1=O [Example 39]
O=C(Nc1ccccc1)c1cc(-c2cccc(Cl)c2)ncn1 [Example 1, 6-(3-Chlorophenyl)-N-phenylpyrimidine-4-carboxamide]
COc1cc(-c2cc(C(=O)NCc3nccc(=O)n3C)ncn2)ccc1F [Example 29, 6-(4-Fluoro-3-methoxyphenyl)-N-((1-methyl-6-oxo-1,6-dihydropyrimidin-2-yl)methyl)pyrimidine-4-carboxamide]
COc1ccc(CNC(=O)c2cc(-c3ccc(F)c(OC)c3)ncn2)nc1 [Example 13]
COc1cc(-c2cc(C(=O)Nc3ccc(=O)n(C)n3)nc(-c3ccccc3)n2)ccn1 [Example 40, 6-(2-Methoxypyridin-4-yl)-N-(1-methyl-6-oxo-1,6-dihydropyridazin-3-yl)-2-phenylpyrimidine-4-carboxamide]
COc1ccc(-c2cc(C(=O)NCc3nccc(=O)n3C)ncn2)cc1Cl [Example 30]
COc1cc(-c2cc(C(=O)Nc3cncc(Cl)c3OC)ncn2)ccn1 [Example 6]
COc1ccc(-c2cc(C(=O)Nc3cc(=O)n(C)cn3)ncn2)cc1Cl [Example 37]
COc1cncc(NC(=O)c2cc(-c3cccc(Cl)c3)ncn2)c1 [Example 3]
N#Cc1cc(F)cc(-c2cc(C(=O)Nc3ccc(=O)[nH]n3)ncn2)c1 [Example 27]
COc1ccnc(CNC(=O)c2cc(-c3ccc(F)c(OC)c3)ncn2)n1 [Example 16]
Cn1nc(NC(=O)c2cc(-c3cc(F)cc(Cl)c3)ncn2)ccc1=O [Example 11]
Cn1nc(NC(=O)c2cc(-c3ccc(F)c(Cl)c3)ncn2)ccc1=O [Example 12]
COc1cc(C#N)cc(-c2cc(C(=O)Nc3ccc(=O)[nH]n3)ncn2)c1 [Example 26]
COc1cnc(NC(=O)c2cc(-c3cc(F)cc(Cl)c3)ncn2)cn1 [Example 25]
Cn1cc(NC(=O)c2cc(-c3cc(F)cc(Cl)c3)ncn2)cnc1=O [Example 35, 6-(3-Chloro-5-fluorophenyl)-N-(1-methyl-2-oxo-1,2-dihydropyrimidin-5-yl)pyrimidine-4-carboxamide]
Cn1nc(NC(=O)c2cc(-c3cc(F)nc(Cl)c3)ncn2)ccc1=O [Example 23]
COc1ncc(-c2cc(C(=O)Nc3ccc(=O)n(C)n3)ncn2)cc1Cl [Example 17]
COc1ccnc(CNC(=O)c2cc(-c3cnc(OC)c(Cl)c3)ncn2)n1 [Example 34, 6-(5-chloro-6-methoxypyridin-3-yl)-N-((4-methoxypyrimidin-2-yl)methyl)pyrimidine-4-carboxamide]
COc1cncc(NC(=O)c2cc(-c3ccnc(OC)c3)ncn2)c1 [Example 7]
O=C(c1cc(-c2cccc(Cl)c2)ncn1)N1CCc2ccccc21 [Example 2]
Cn1cnc(NC(=O)c2cc(-c3cc(F)cc(Cl)c3)ncn2)cc1=O [Example 38]
COc1cc(-c2cc(C(=O)Nc3ccc(=O)n(C)n3)ncn2)ccc1Cl [Example 9]
COc1ccc(-c2cc(C(=O)Nc3cnn(C)c(=O)c3)ncn2)cc1Cl [Example 36, 6-(3-Chloro-4-methoxyphenyl)-N-(1-methyl-6-oxo-1,6-dihydropyridazin-4-yl)pyrimidine-4-carboxamide]
COc1cc(-c2cc(C(=O)Nc3ccc(=O)n(C)n3)ncn2)ccc1F [Example 10]
COc1cc(F)cc(-c2cc(C(=O)Nc3ccc(=O)n(C)n3)ncn2)c1 [Example 21]
Cn1nc(NC(=O)c2cc(-c3cc(F)cc(C#N)c3)ncn2)ccc1=O [Example 20]
Cn1c(CNC(=O)c2cc(-c3cc(F)cc(Cl)c3)ncn2)nccc1=O [Example 31]
COc1cccc(-c2cc(C(=O)Nc3ccc(=O)n(C)n3)ncn2)c1 [Example 4, 6-(3-Methoxyphenyl)-N-(1-methyl-6-oxo-1,6-dihydropyridazin-3-yl)pyrimidine-4-carboxamide]
COc1cc(-c2cc(C(=O)NCc3ncccc3OC)ncn2)ccc1F [Example 15]
COc1ncc(-c2cc(C(=O)NCc3nccc(=O)n3C)ncn2)cc1Cl [Example 33, 6-(5-Chloro-6-methoxypyridin-3-yl)-N-((1-methyl-6-oxo-1,6-dihydropyrimidin-2-yl)methyl)pyrimidine-4-carboxamide]
COc1cc(C#N)cc(-c2cc(C(=O)Nc3ccc(=O)n(C)n3)ncn2)c1 [Example 19]
COc1ccc(-c2cc(C(=O)Nc3nccn(C)c3=O)ncn2)cc1Cl [Example 18]
COc1cc(-c2cc(C(=O)Nc3cncc(OC)c3C)ncn2)ccn1 [Example 5]
COc1cc(-c2cc(C(=O)N3Cc4cccnc4C3)ncn2)ccn1 [Example 14]
Cc1cc(Cl)cc(-c2cc(C(=O)Nc3ccc(=O)n(C)n3)ncn2)c1 [Example 22]
Cn1ccnc(NC(=O)c2cc(-c3cc(F)cc(Cl)c3)ncn2)c1=O [Example 24]
Cn1c(CNC(=O)c2cc(-c3cc(F)cc(C#N)c3)ncn2)nccc1=O [Example 32]
